Reference: US8269000B2, “Substituted pyrimidine and triazine compounds” (Gruenenthal GmbH, priority 2008, dated 2012)

Legend:
human B1R = target: T1, human B1R (Homo sapiens, UniProt P46663); test: FLIPR Ca2+ functional study on bradykinin receptor 1 (hB1R CHO K1 cells); type: cell-based; settings: % inhibition human B1R at 10 μM; for inhibition at 10 µM: read-out: % inh. (hum. B1R) 10 μM
T1 construct: expressed in transfected cells; host or cells: CHO K1 cells
T1 sequence (P46663 1-353): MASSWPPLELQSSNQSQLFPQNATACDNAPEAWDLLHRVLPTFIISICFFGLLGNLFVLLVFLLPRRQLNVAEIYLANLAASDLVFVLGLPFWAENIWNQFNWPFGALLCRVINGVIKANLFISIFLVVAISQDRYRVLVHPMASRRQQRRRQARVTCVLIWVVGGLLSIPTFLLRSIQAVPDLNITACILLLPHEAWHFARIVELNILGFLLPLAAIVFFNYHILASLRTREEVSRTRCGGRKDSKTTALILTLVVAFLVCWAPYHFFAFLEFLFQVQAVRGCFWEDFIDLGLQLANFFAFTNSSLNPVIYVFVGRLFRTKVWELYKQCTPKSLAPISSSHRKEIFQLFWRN
Experimental: The agonistic or antagonistic activity of substances can be quantified on the bradykinin receptor 1 (B1R) of the species human and rat using ectopically expressing cell lines (CHO K1 cells) and with the aid of a Ca^2+-sensitive dye (Fluo-4) using a fluorescent imaging plate reader (FLIPR). The indication in % activation is based on the Ca^2+ signal after addition of Lys-Des-Arg^9-bradykinin (0.5 nM) or Des-Arg^9-bradykinin (100 nM). Antagonists lead to suppression of the Ca^2+ influx after the addition of the agonist. % Inhibition compared with the maximum achievable inhibition is indicated.
The agonistic or antagonistic activity of substances can be determined on the bradykinin receptor 1 (B1R) of the species human and rat using the following assay. According to this assay, the Ca^2+ influx through the channel is quantified with the aid of a Ca^2+-sensitive dye (Fluo-4 type, Molecular Probes Europe BV, Leiden, Netherlands) using a Fluorescent Imaging Plate Reader (FLIPR, Molecular Devices, Sunnyvale, USA).
Chinese hamster ovary cells (CHO K1 cells) which have been stably transfected with the human B1R gene (hB1R cells) or with the B1R gene of the rat (rB1R cells) are used. For functional studies, the cells are plated out on black 96-well plates having a clear base (BD Biosciences, Heidelberg, Germany or Greiner, Frickenhausen, Germany) in a density of 20,000-35,000 cells/well. The cells are left overnight at 37° C. and with 5% CO2 in culture medium (hB1R cells: Nutrient Mixture Ham's F12, Gibco Invitrogen GmbH, Karlsruhe, Germany or DMEM, Sigma-Aldrich, Taufkirchen, Germany; rB1R cells: D-MEM/F12, Gibco Invitrogen GmbH, Karlsruhe, Germany), with 10 vol.% FBS (fetal bovine serum, Gibco Invitrogen GmbH, Karlsruhe, Germany or PAN Biotech GmbH, Aidenbach, Germany). On the following day, the cells are loaded for 60 minutes at 37° C. with 2.13 μM Fluo-4 (Molecular Probes Europe BV, Leiden, Netherlands) in HBSS buffer (Hank's buffered saline solution, Gibco Invitrogen GmbH, Karlsruhe, Germany) […] (Sigma-Aldrich, Taufkirchen, Germany) and 10 mM HEPES (Sigma-Aldrich, Taufkirchen, Germany). The plates are then washed twice with HBSS buffer, and HBSS buffer additionally containing 0.1% BSA (bovine serum albumin; Sigma-Aldrich, Taufkirchen, Germany), 5.6 mM glucose and 0.05% gelatin (Merck KGaA, Darmstadt, Germany) is added to the plates. After incubation for a further 20 minutes at room temperature, the plates are inserted into the FLIPR for Ca^2+ measurement. Alternatively, washing is carried out with buffer A (15 mM HEPES, 80 mM NaCl, 5 mM KCl, 1.2 mM CaCl2, 0.7 mM MgSO4, 2 g/l glucose, 2.5 mM probenecid) followed by loading with buffer A with added 2.5 μM Fluo-4 and 0.025% Pluronic F127 (Sigma-Aldrich, Taufkirchen, Germany). The cells are then washed twice with buffer A and incubated for 30 minutes at room temperature with buffer A additionally containing 0.05% BSA and 0.05% gelatin and are then inserted into the FLIPR for Ca^2+ measurement. The Ca^2+-dependent fluorescence is measured before and after the addition of substances (λex=488 nm, λem=540 nm). Quantification is carried out by measuring the highest fluorescence intensity (FC, fluorescence counts) over time.
The FLIPR protocol consists of two substance additions. Test substances (10 μM) are first pipetted onto the cells and the Ca^2+ influx is compared with the control (hB1R: Lys-Des-Arg^9-bradykinin>=50 nM; rB1R: Des-Arg^9-bradykinin 10 μM). This gives the activation in %, based on the Ca^2+ signal after addition of Lys-Des-Arg^9-bradykinin (>=50 nM) or Des-Arg^9-bradykinin (10 μM). After 10-20 minutes' incubation, Lys-Des-Arg^9-bradykinin (hB1R) or Des-Arg^9-bradykinin (rB1R) is applied in the concentration of the EC80, and the influx of Ca^2+ is likewise determined. Antagonists lead to suppression of the Ca^2+ influx. The % inhibition compared with the maximum achievable inhibition is calculated. […]

rat B1R = target: T2, rat B1R (Rattus norvegicus, UniProt P97583); test: FLIPR Ca2+ functional study on bradykinin receptor 1 (rB1R CHO K1 cells); type: cell-based; settings: for inhibition at 10 µM: CHO-K1, % inhibition rat B1R at 10 μM, read-out: % inh. (rat B1R) 10 μM; for % inh. (rat B1R) 10 μM: % inhibition rat B1R at 10 μM
T2 construct: expressed in transfected cells; host or cells: CHO K1 cells
T2 sequence (P97583 1-337): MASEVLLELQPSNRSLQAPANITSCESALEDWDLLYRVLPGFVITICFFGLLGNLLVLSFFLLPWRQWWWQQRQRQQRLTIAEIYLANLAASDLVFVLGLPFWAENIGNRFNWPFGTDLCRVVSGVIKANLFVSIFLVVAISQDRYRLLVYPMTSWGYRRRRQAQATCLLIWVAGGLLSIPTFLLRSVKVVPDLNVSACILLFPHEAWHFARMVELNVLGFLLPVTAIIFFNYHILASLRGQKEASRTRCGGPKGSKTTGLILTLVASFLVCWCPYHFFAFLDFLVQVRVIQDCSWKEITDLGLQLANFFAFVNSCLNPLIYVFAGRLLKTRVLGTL
How it was run: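 Antagonism was calculated as % of maximal inhibition of the Ca2+ rise triggered by agonist at EC80 (Lys-Des-Arg9-bradykinin for hB1R, Des-Arg9-bradykinin for rB1R), added 10-20 min after test compound (10 μM or serial dilutions for IC50) to Fluo-4-loaded transfected CHO K1 cells on FLIPR. Duplicates or triplicates, ≥2 independent runs.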

Structure (SMILES) | inhibition at 10 µM (human B1R) | inhibition at 10 µM (rat B1R) | % inh. (hum. B1R) 10 μM (human B1R) | % inh. (rat B1R) 10 μM (rat B1R) | % inh. (rat B1R) 10 μM (rat B1R; 10 µM)
COc1cc(C)c(S(=O)(=O)N2CCC[C@H]2COc2nccc(N3CCC(CCN4CCCC4)CC3)n2)c(C)c1 [G_CC-016, 2-[[(2S)-1-(4-methoxy-2,6-dimethylphenyl)sulfonyl-2-pyrrolidinyl]methoxy]-4-[4-(2-1-pyrrolidinylethyl)-1-piperidinyl]pyrimidine] | 96% | 100% | – | – | –
COc1cc(C)c(S(=O)(=O)N2CCC[C@H]2COc2nccc(N3CCC4(CCN(Cc5ccccc5)C4)C3)n2)c(C)c1 (stereo partly drawn) [G_CC-032, 3-benzyl-7-[2-[[(2S)-1-(4-methoxy-2,6-dimethylphenyl)sulfonyl-2-pyrrolidinyl]methoxy]-4-pyrimidinyl]-3,7-diazaspiro[4.4]nonane] | 86% | 105% | – | – | –
COc1cc(C)c(S(=O)(=O)N2CCC[C@H]2COc2nccc(N3CCC(Oc4ccncc4)CC3)n2)c(C)c1 [G_CC-052, 2-[[(2S)-1-(4-methoxy-2,6-dimethylphenyl)sulfonyl-2-pyrrlidinyl]methoxy]-4-[4-(4-pyridyloxy)-1-piperidinyl]pyrimidine] | – | – | 74% | 99% | –
COc1cc(C)c(S(=O)(=O)N(C)CCOc2nccc(N3CCN(C4CCN(C)CC4)CC3)n2)c(C)c1 [G_CC-001, 4-methoxy-N,2,6-trimethyl-N-[2-[[4-[4-(1-methyl-4-piperidinyl)-1-piperazinyl]-2-pyrimidinyl]oxy]ethyl]benzenesulfonamide] | 98% | 97% | – | – | –
COc1cc(C)c(S(=O)(=O)N2CCC[C@H]2COc2nccc(N3CCC4(CCN(c5ccncc5)CC4)CC3)n2)c(C)c1 [G_CC-055, 9-[2-[[(2S)-1-(4-methoxy-2,6-dimethylphenyl)sulfonyl-2-pyrrolidinyl)methoxy]-4-pyrimidinyl]-3-(4-pyridyl)-3,9-diazaspiro[5.5]undecane] | 97% | 101% | – | – | –
Cc1cccc(Cl)c1S(=O)(=O)N(CCOc1nccc(N2CCC3(CCN(c4ccncc4)CC3)CC2)n1)C1CC1 [Example G-009, 2-chloro-N-cyclopropyl-6-methyl-N-[2-[[4-[9-(4-pyridyl)-3,9-diazaspiro[5.5]undecan-3-yl]-2-pyrimidinyl]oxy]ethyl]benzenesulfonamide] | 97% | 91% | – | – | –
O=S(=O)(c1ccccc1C(F)(F)F)N(CCOc1nccc(N2CCC3(CCN(c4ccncc4)CC3)CC2)n1)C1CC1 [Example G-010, N-cyclopropyl-N-[2-[[4-[9-(4-pyridyl)-3,9-diazaspiro[5.5]undecan-3-yl]-2-pyrimidinyl]oxy]ethyl]-2-(trifluoromethyl)benzenesulfonamide] | 98% | 89% | – | – | –
COc1cc(C)c(S(=O)(=O)N(C)CCOc2ccnc(N(C)CCN3CCC(c4ccccc4)(N(C)C)CC3)n2)c(C)c1 [Example H-003, N-[2-[[2-[2-(4-dimethylamino-4-phenyl-1-piperidinyl)ethyl-methylamino]-4-pyrimidinyl]oxy]ethyl]-4-methoxy-N,2,6-trimethylbenzenesulfonamide] | 90% | – | – | – | 71%
COc1cc(C)c(S(=O)(=O)N(C)CCOc2nccc(N3CCC4(CCN(c5ccncc5)CC4)CC3)n2)c(C)c1 [G_CC-047, 4-methoxy-N,2,6-trimethyl-N-[2-[[4-[3-(4-pyridyl)-3,9-diazaspiro[5.5]undecan-9-yl]-2-pyrimidinyl]oxy]ethyl]benzenesulfonamide] | 100% | 99% | – | – | –
COc1cc(C)c(S(=O)(=O)N(C)CCOc2ccnc(N3CCC4(CCN(c5ccncc5)CC4)CC3)n2)c(C)c1 [H_CC-029, 4-methoxy-N,2,6-trimethyl-N-[2-[[2-[3-(4-pyridyl)-3,9-diazaspiro[5.5]undecan-9-yl]-4-pyrimidinyl]oxy]ethyl]benzenesulfonamide] | 92% | 101% | – | – | –
COc1cc(C)c(S(=O)(=O)N2CC(Oc3ccnc(N4CCC5(CCN(c6ccncc6)CC5)CC4)n3)C2)c(C)c1 [Example H-007, 3-[4-[[1-(4-methoxy-2,6-dimethylphenyl)sulfonyl-3-azetidinyl]oxy]-2-pyrimidinyl]-9-(4-pyridyl)-3,9-diazaspiro[5.5]undecane] | 11% | 80% | – | – | –
COc1cc(C)c(S(=O)(=O)N2CCCC(Oc3nccc(N4CCC5(CCN(c6ccncc6)CC5)CC4)n3)C2)c(C)c1 (stereo not drawn) [G_CC-041, 9-[2-[[1-(4-methoxy-2,6-dimethylphenyl)sulfonyl-3-piperidinyl]oxy]-4-pyrimidinyl]-3-(4-pyridyl)-3,9-diazaspiro[5.5]undecane] | 96% | 101% | – | – | –
COc1cc(C)c(S(=O)(=O)N(CCOc2nccc(N3CCC4(CCN(c5ccncc5)CC4)C3)n2)C2CC2)c(C)c1 [Example G-019, N-cyclopropyl-4-methoxy-2,6-dimethyl-N-[2-[[4-[8-(4-pyridyl)-3,8-diazaspiro[4.5]decan-3-yl]-2-pyrimidinyl]oxy]ethyl]benzenesulfonamide] | 100% | 102% | – | – | –
COc1cc(C)c(S(=O)(=O)N(C)CCOc2ccnc(N3CCN(c4ccncc4)CC3)n2)c(C)c1 [Example H-002] | 81% | 51% | – | – | –
COc1cc(C)c(S(=O)(=O)N2C[C@H](F)C[C@H]2COc2nccc(N3CCC4(CCN(c5ccncc5)CC4)CC3)n2)c(C)c1 [Example G-011, 3-[2-[[(2S,4R)-4-fluoro-1-(4-methoxy-2,6-dimethylphenyl)sulfonyl-2-pyrrolidinyl]methoxy]-4-pyrimidinyl]-9-(4-pyridyl)-3,9-diazaspiro[5.5]undecane] | 99% | 99% | – | – | –
